“Also recorded” adds a separate entry of the source.
Assays:
[1] = system: COX-2; assay: Quantitative real-time RT-PCR: COX-2 gene expression in LPS-elicited RAW 264.7 macrophages; format: cell-based, murine; conditions: for COX-2 gene expression (LPS control = 100; values less than 100 represent inhibition): Table 4 experiment
Protocol: (§1) RAW 264.7 murine monocyte/macrophages (ATCC TIB-71) were maintained in Dulbecco's Modified Eagle Medium (D-MEM, Invitrogen Corp., Carlsbad, Calif.) supplemented with 10% fetal bovine serum (FBS, Invitrogen Corp., Carlsbad, Calif.) and 1% streptomycin and were kept in a humidified 37° C. incubator with 5% CO2. Cells were subcultured by scraping when plates reached 90% confluency with a 1:5 ratio.
(§2) Murine RAW macrophages 264.7 were plated at a density of 0.4×10^6 cells per well in 24-well plates 12 hours prior to treatment. A stock solution of AL-1 was created by completely dissolving the dry extract as in Example 1 in 95% ethanol. Two hours before elicitation with lipopolysaccharide (LPS, 1 μg/ml, Sigma, St. Louis, Mo.) the cells were treated with various concentrations of AL-1 (25-200 μg/ml) or vehicle control, maintaining a final concentration of 0.5% ethanol for all treatments. After six hours of treatment, RNA was extracted from cells using TRIzol® reagent (Invitrogen Corp., Carlsbad, Calif.) according to the manufacturer instructions. RNAs were quantified spectrophotometrically at 260 nm and stored at −80° C. until real-time PCR could be performed.
(§3) RNA was purified by treating with DnaseI (Invitrogen Corp., Carlsbad, Calif.) before performing reverse transcription with Stratascript Reverse Transcriptase, an RNA dependent DNA polymerase (Stratagene, La Jolla, Calif.) according to the manufacturer instructions. The cDNAs obtained were then amplified by real-time PCR. Expression of COX-2, iNOS, IL1β and β-actin gene expression levels was quantified using a Stratagene Mx 3000P™ Real-Time PCR System (Stratagene, La Jolla, Calif.). Primers for each gene were designed using Primer Express® version 2.0 software (Applied Biosystems, Foster City, Calif.; Table 2) (Giulietti et al., 2001; Overbergh et al., 2003).
(§4) Real-time PCR analyses were carried out using a Brilliant® SYBR® Green PCR master mix kit (Stratagene, La Jolla, Calif.) according to kit instructions. Samples were amplified using the following program: two minutes incubation at 50° C.; initial denaturation and polymerase activation at 95° C. for ten minutes; 40 PCR cycles consisting of 15 seconds at 95° C. and 60 seconds at 60° C. each. The RNA expression of the target genes were analyzed by ΔΔCT methods (Winer et al., 1999) using β-Actin gene as normalizer. The ΔΔCT values obtained from these analyses directly reflect the relative mRNA quantities for the marker gene in response to specific treatments. Lower ΔΔCT values indicate greater anti-inflammatory activity. The changes in gene expression as reflected by ΔΔCT values can also be expressed as percentage genetic inhibition [(1−ΔΔCT)×100] indicating anti-inflammatory properties of the test compounds. Amplification of specific transcripts was further confirmed by obtaining melting curve profiles. All samples were run in duplicate; four independent analyses were performed.

[2] = system: IL1β; assay: Quantitative real-time RT-PCR: IL1β gene expression in LPS-elicited RAW 264.7 macrophages; format: cell-based, murine; conditions: for IL1β gene expression (LPS control = 100; values less than 100 represent inhibition): Table 4 experiment; for effect on IL1β gene expression (in words): LPS-elicited RAW macrophages
Protocol: as §1, §2, §3, §4

[3] = system: iNOS; assay: Quantitative real-time RT-PCR: iNOS gene expression in LPS-elicited RAW 264.7 macrophages; format: cell-based, murine; conditions: for iNOS gene expression (LPS control = 100; values less than 100 represent inhibition): Table 4 experiment
Protocol: as §1, §2, §3, §4

[4] = target: T1, COX-1 (Ovis aries, UniProt P05979); assay: Colorimetric COX inhibitor screening assay, COX-1; format: biochemical, ovine; conditions: data not shown
T1 construct: purchased Cayman Chemical Company
T1 sequence (P05979 25-600): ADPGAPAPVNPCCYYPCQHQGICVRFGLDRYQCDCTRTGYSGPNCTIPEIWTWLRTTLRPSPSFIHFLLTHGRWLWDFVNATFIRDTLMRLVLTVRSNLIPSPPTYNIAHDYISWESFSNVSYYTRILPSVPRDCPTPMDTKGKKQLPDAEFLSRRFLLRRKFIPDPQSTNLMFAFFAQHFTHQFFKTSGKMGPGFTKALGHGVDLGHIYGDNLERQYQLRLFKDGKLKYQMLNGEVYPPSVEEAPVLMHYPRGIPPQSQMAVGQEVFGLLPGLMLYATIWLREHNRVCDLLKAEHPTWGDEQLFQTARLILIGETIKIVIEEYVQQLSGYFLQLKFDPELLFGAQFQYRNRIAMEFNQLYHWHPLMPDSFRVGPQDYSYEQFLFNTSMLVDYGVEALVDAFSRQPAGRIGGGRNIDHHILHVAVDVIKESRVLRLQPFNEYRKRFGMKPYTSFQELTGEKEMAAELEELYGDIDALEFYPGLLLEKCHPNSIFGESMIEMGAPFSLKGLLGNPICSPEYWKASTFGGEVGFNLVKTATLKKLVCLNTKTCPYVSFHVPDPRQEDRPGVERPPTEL
Protocol: An ovine COX inhibitor screening assay (Cayman Chemical Company, Ann Arbor, Mich.) was used to measure inhibition of purified COX-1 and COX-2. This assay measures the peroxidase component of cyclooxygenases colorimetrically by monitoring the appearance of oxidized N,N,N′,N′-tetramethyl-p-phenylenediamine (TMPD) at 590 nm. Tablets of Vioxx (rofecoxib; Merck & Co., Inc., Whitehouse Station, N.J.) were ground and dissolved in methanol (1 mg/mL) to use as a positive control. AL-1, leukomisin, and austricin were also dissolved in methanol at 1 mg/mL. The assay was performed following manufacturer instructions. Vioxx, vehicle (100% initial activity), or treatments were added to a 96-well plate along with 180 μL assay mixture provided by the manufacturer containing 150 μL assay buffer, 10 μL heme, and 10 μL enzyme (COX-1 or COX-2). A background correction row received no enzyme and 10 μL additional assay buffer. After 5 min incubation at room temp, 20 μL of a colorimetric substrate solution containing TMPD and 20 μL arachadonic acid diluted in assay buffer were added to the plate. The plate was incubated for 5 min and the absorbance was read at 590 nm using a microplate reader (Molecular Devices, Sunnyvale, Calif.). To calculate percent inhibition, average absorbance was calculated for each sample (n=3). The background blank well absorbance was subtracted from each sample. […]

Compound | COX-2 gene expression (LPS control = 100; values less than 100 represent inhibition) ([1]; 25 μg) | COX-2 gene expression (LPS control = 100; values less than 100 represent inhibition) ([1]; 50 μg) | COX-2 gene expression (LPS control = 100; values less than 100 represent inhibition) ([1]; 75 μg) | IL1β gene expression (LPS control = 100; values less than 100 represent inhibition) ([2]; 25 μg) | IL1β gene expression (LPS control = 100; values less than 100 represent inhibition) ([2]; 50 μg) | IL1β gene expression (LPS control = 100; values less than 100 represent inhibition) ([2]; 75 μg) | effect on IL1β gene expression (in words) [2] | iNOS gene expression (LPS control = 100; values less than 100 represent inhibition) ([3]; 25 μg) | iNOS gene expression (LPS control = 100; values less than 100 represent inhibition) ([3]; 50 μg) | iNOS gene expression (LPS control = 100; values less than 100 represent inhibition) ([3]; 75 μg) | COX-1 enzyme inhibition (in words) [4] | effect on COX-2 gene expression (in words) ([1]; LPS-elicited RAW macrophages) | effect on iNOS gene expression (in words) ([3]; LPS-elicited RAW macrophages)
CC1=CC(=O)C2=C(C)C[C@H](O)[C@@H]3[C@H](OC(=O)[C@H]3C)[C@@H]12 (single isomer, unassigned) [austricin] | 120 | 116 | 102 | 58 | 65 | 65 | only marginal activity | 102 | 108 | 113 | did not inhibit COX-1; also recorded: did not significantly inhibit |  | 
CC1=CC(=O)C2=C(C)CC[C@@H]3[C@H](OC(=O)[C@H]3C)[C@@H]12 [leukomisin] | 140 | 165 | 159 | 110 | 161 | 281 | no affect on gene expression; also recorded: no activity | 127 | 151 | 126 | did not inhibit COX-1 activity; also recorded: did not significantly inhibit | no affect on gene expression; also recorded: no activity | no affect on gene expression; also recorded: no activity
